Broadly, the IC50 is the concentration needed to halve the response being measured. A lower IC50 goes with greater potency. What is called inhibition is the share of the control response that was lost under treatment.

In one assay the target is p38 alpha (Homo sapiens, UniProt Q16539). As to the kind of experiment: Evaluation of inhibitory ability of p38a mitogen-activated protein kinase (MAPK). The assay is classed as biochemical. The following applies: Serine/Threonine 15 peptide, 1 hour at room temperature, read at 445 nm and 520 nm. As for the experimental part: To identify the ability to inhibit p38 MAPK, compounds 1 to 15 were diluted to identify the inhibitory effect according to concentration. Briefly, the compounds were diluted at concentrations of […], respectively, and then a peptide/kinase mixture (final 7.07-28.3 ng p38 alpha, 2 μM Serine/Threonine 15, 50 mM HEPES pH 7.0, 0.01% NaN3) and ATP solution were added. After carrying out a reaction at room temperature for 1 hour, a development reagent was added, and a reaction was performed again at room temperature for 1 hour.

Another assay concerns the target T1, p-p38 MAPK (Mus musculus, UniProt P47811).
T1 construct: endogenous in cells; host or cells: Raw264.7
Nature of the assay: Evaluation of p38 MAPK protein inhibitory ability in cells (p-p38 immunoblot). It is filed as cell-based. The following applies: 10 μM compound, 24 hours; for p-p38 inhibition %: Raw264.7 cells, 10 µM; for inhibition at 10 µM: RAW264.7, Raw264.7 cells. The protocol:
To identify inhibition of p-p38 MAPK, inhibition of p38 MAPK was identified after each compound was treated to Raw264.7 cells obtained by transforming macrophages into cancerous cells that cause inflammation according to p-p38 MAPK activity. Briefly, Raw264.7 cells were cultured in Dulbecco's modified Eagle Medium supplemented with 10% fetal bovine serum and penicillin/streptomycin (100 U/ml). Raw 264.7 cells were treated with 10 μM of compounds 1 to 15 according to the present disclosure in a petri dish respectively, followed by culture in a CO2 incubator for 24 hours. The effect of each compound on inhibition of p-p38 MAPK in cells was identified through protein immunoblot.
After completion of cell culture under the experimental conditions, washing was performed with cold phosphate buffered saline (PBS). The cells were then collected and centrifuged at 1200 rpm for 3 minutes. The precipitate was dissolved in cells with 2× sample buffer (1M Tris-HCl pH 6.8, 50% glycerol, 10% SDS, 2-mercaptoethanol, 1% bromophenol blue) and boiled at 100° C. for 10 minutes. The prepared protein samples were subjected to sodium dodecyl sulfate poly acrylamide gel electrophoresis and then transferred to PVDF membrane (Millipore). Blocking was performed in a 5% bovine serum albumin (BSA, RMbio) solution for a specific coupling reaction between the protein on the PVDF membrane and antibody. The BSA solution was then discarded, and the membrane was washed with PBS-T (0.5% tween 20 in PBS). The coupling reaction between the protein on the membrane and antibody was carried out overnight at 4° C., followed by washing again with PBS-T. Finally, a secondary antibody (Cell signaling Technology) conjugated with horseradish peroxidase (HRP) was diluted in PBS-T, and a reaction was carried out at room temperature for 2 hours. Luminata Forte HRP substrate (Millipore) was used to determine the protein amount on the membrane.
Background: In western blotting, separated proteins are transferred to a membrane and probed.

The next assay deals with Raw264.7 cells. Nature of the assay: Evaluation of nitric oxide inhibitory ability according to cellular inflammatory response (Griess reagent). It is filed as cell-based. The settings on record: 10 μM compound, 550 nm; for NO inhibition (%): 24 hours, 10 µM; for inhibition at 10 µM: Mus musculus, RAW264.7, 24 h, read-out: NO inhibition (%). The protocol:
In order to identify an inflammatory inhibitory effect upon inhibition of p-p38 MAPK, each compound was treated to Raw264.7 cells obtained by transforming macrophages into cancerous cells involved in the inflammatory response, so as to identify inhibition of inflammation due to inhibition of p38 MAPK. Briefly, Raw264.7 cells were cultured in Dulbecco's Modified Eagle Medium supplemented with 10% fetal bovine serum and penicillin/streptomycin (100 U/ml). Raw 264.7 cells were treated with 10 μM of compounds 1 to 15 according to the present disclosure in a petri dish respectively, followed by culture in a CO2 incubator for 24 hours.
After completion of cell culture under experimental conditions, the supernatant was obtained and centrifuged at 1200 rpm for 3 minutes. The centrifuged supernatant was mixed with Griess reagent (1% sulfanilamide, 0.1% N-(1-naphthyl)ethylenediamine dihydrochloride, 5% phosphoric acid) at 1:1 and then a reaction was performed for 10 minutes under shaded condition. The concentration of nitric oxide was determined at a wavelength of 550 nm.

T1 sequence (P47811 whole entry): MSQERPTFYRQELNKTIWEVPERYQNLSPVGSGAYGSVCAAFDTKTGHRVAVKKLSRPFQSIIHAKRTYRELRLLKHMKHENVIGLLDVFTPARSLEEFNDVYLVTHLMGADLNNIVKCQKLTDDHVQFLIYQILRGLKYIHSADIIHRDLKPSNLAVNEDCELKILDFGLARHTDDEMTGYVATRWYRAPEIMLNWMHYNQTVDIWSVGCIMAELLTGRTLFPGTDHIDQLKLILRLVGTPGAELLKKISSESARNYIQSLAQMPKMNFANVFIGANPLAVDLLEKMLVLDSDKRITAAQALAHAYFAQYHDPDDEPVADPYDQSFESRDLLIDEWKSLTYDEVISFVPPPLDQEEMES
Sequence of p38 alpha (Q16539 whole entry): as the sequence (P47811 whole entry) above, with H48L, A263T counted along it

In turn, `Cc1ccc(C(=O)NC2CC2)cc1-c1ccc(C(=O)C2CCC(OCCO)C2)cc1` (stereo not drawn) [11 (anti isomer), N-cyclopropyl-4′-(3-(2-hydroxyethoxy)cyclopentanecarbonyl)-6-methyl-[1,1′-biphenyl]-3-carboxamide] came in with an IC50 against p38 alpha of 58.4 nM. On p-p38 MAPK, this molecule yielded a p-p38 inhibition % of 64.1%. In the assay with Raw264.7 cells, the “NO inhibition (%)” value is 11.0%.
`Cc1ccc(C(=O)NC2CC2)cc1-c1ccc(C(=O)C2CCC(OCCO)C2)cc1` (stereo not drawn) [11 (syn isomer), N-cyclopropyl-4′-(3-(2-hydroxyethoxy)cyclopentanecarbonyl)-6-methyl-[1,1′-biphenyl]-3-carboxamide]: the IC50 against p38 alpha is 27.8 nM. Moreover, the p-p38 inhibition % at p-p38 MAPK came out at 41.9%. Also, the “NO inhibition (%)” value in the assay with Raw264.7 cells is reported as 30.6%.
The molecule `Cc1ccc(C(=O)NC2CC2)cc1-c1ccc(C(=O)C(C)(C)O)cc1` [Compound 1, N-cyclopropyl-4′-(2-hydroxy-2-methylpropanoyl)-6-methyl-[1,1′-biphenyl]-3-carboxamide] had an IC50 at p38 alpha of 71.8 nM.
On the same count and under the same terms, the same measure for `COCCC(C)C(=O)c1ccc(-c2cc(C(=O)NC3CC3)ccc2C)cc1` (stereo not drawn) [Compound 2, N-cyclopropyl-4′-(4-methoxy-2-methylbutanoyl)-6-methyl-[1,1′-biphenyl]-3-carboxamide]: 21.9 nM.
For the molecule `COCCCC(C)C(=O)c1ccc(-c2cc(C(=O)NC3CC3)ccc2C)cc1` (stereo not drawn) [Compound 3, N-cyclopropyl-4′-(5-methoxy-2-methylpentanoyl)-6-methyl-[1,1′-biphenyl]-3-carboxamide], half-maximal inhibition against p38 alpha (IC50) required 50.7 nM. Compared with the last molecule, the IC50 is about 2.3-fold higher.
`Cc1ccc(C(=O)NC2CC2)cc1-c1ccc(C(=O)C2CC2)cc1` [Compound 4, 4′-(cyclopropanecarbonyl)-N-cyclopropyl-6-methyl-[1,1′-biphenyl]-3-carboxamide] displayed an IC50 at p38 alpha of 39.2 nM. Also, the inhibition at 10 µM against p-p38 MAPK was 20.9%; with Raw264.7 cells it was 26%.
On to `Cc1ccc(C(=O)NC2CC2)cc1-c1ccc(C(=O)C2CCC2)cc1` [Compound 5, 4′-(cyclobutanecarbonyl)-N-cyclopropyl-6-methyl-[1,1′-biphenyl]-3-carboxamide], for which, at p38 alpha, the 50% inhibitory concentration (IC50) was determined as 86.7 nM. For the same molecule, the figures for the inhibition at 10 µM against p-p38 MAPK and in the assay on Raw264.7 cells were 80.4% and 11.9%, respectively.
In the case of `Cc1ccc(C(=O)NC2CC2)cc1-c1ccc(C(=O)C2CCCC2)cc1` [Compound 6, 4′-(cyclopentanecarbonyl)-N-cyclopropyl-6-methyl-[1,1′-biphenyl]-3-carboxamide], it took 128 nM to reach half-maximal inhibition on p38 alpha (IC50). For the same molecule, the inhibition at 10 µM against p-p38 MAPK was found to be 76.2%; with Raw264.7 cells it was 24%.
The like results for `Cc1ccc(C(=O)NC2CC2)cc1-c1ccc(C(=O)C2CCCCC2)cc1` [Compound 7, 4′-(cyclohexanecarbonyl)-N-cyclopropyl-6-methyl-[1,1′-biphenyl]-3-carboxamide] were, in that order, 72.6 nM, 87.6% and 15.5%.
The like results for `Cc1ccc(C(=O)NC2CC2)cc1-c1ccc(C(=O)C2CCCCCC2)cc1` [Compound 8, 4′-(cycloheptanecarbonyl)-N-cyclopropyl-6-methyl-[1,1′-biphenyl]-3-carboxamide] were, in that order, 46.6 nM, 83% and 43.6%.
`Cc1ccc(C(=O)NC2CC2)cc1-c1ccc(C(=O)C2CC=CC2)cc1` [Compound 9, 4′-(cyclopent-3-enecarbonyl)-N-cyclopropyl-6-methyl-[1,1′-biphenyl]-3-carboxamide]: the IC50 at p38 alpha was 46.5 nM. The figures for the inhibition at 10 µM at p-p38 MAPK and in the assay on Raw264.7 cells were 81.7% and 21.1%, respectively.
Taken in the same sequence, the figures for `Cc1ccc(C(=O)NC2CC2)cc1-c1ccc(C(=O)C2CCC(O)C2)cc1` (stereo not drawn) [Compound 10, N-cyclopropyl-4′-(3-hydroxycyclopentanecarbonyl)-6-methyl-[1,1′-biphenyl]-3-carboxamide] were 22.5 nM, 44.7% and 11.1%.
For the molecule `COCCOC1CCC(C(=O)c2ccc(-c3cc(C(=O)NC4CC4)ccc3C)cc2)C1` (stereo not drawn) [Compound 12, N-cyclopropyl-4′-(3-(2-methoxyethoxy)cyclopentane-1-carbonyl)-6-methyl-[1,1′-biphenyl]-3-carboxamide], the IC50 against p38 alpha is 21.8 nM.
In the case of `Cc1ccc(C(=O)NC2CC2)cc1-c1ccc(C(=O)C(C)O)cc1` (stereo not drawn) [Compound 13, N-cyclopropyl-4′-(2-hydroxypropanoyl)-6-methyl-[1,1′-biphenyl]-3-carboxamide], at p38 alpha, it took 50.8 nM to reach half-maximal inhibition (IC50). This IC50 is about 2.3-fold higher than that of the molecule before.
As for `Cc1ccc(C(=O)NC2CC2)cc1-c1ccc(C(=O)C2CCNC2)cc1` (stereo not drawn) [Compound 14, N-cyclopropyl-6-methyl-4′-(pyrrolidine-3-carbonyl)-[1,1′-biphenyl]-3-carboxamide], on p38 alpha, the IC50 came out at 126 nM. This molecule also gave an inhibition at 10 µM against p-p38 MAPK of 88.6%.
Take `COCCN1CCC(C(=O)c2ccc(-c3cc(C(=O)NC4CC4)ccc3C)cc2)C1` (stereo not drawn) [Compound 15, N-cyclopropyl-4′-(1-(2-methoxyethyl)pyrrolidine-3-carbonyl)-6-methyl-[1,1′-biphenyl]-3-carboxamide]: on p38 alpha, inhibition was half-maximal at 158 nM (IC50). This molecule gave an inhibition at 10 µM at p-p38 MAPK of 79.2%.

(Values after patent publication US20240109839A1, “NOVEL COMPOUND EXHIBITING ANTI-INFLAMMATORY ACTIVITY AS P38 MAP KINASE INHIBITOR” (PRAZERTHERAPEUTICS INC., priority 2021, published 2024).)
